Source: publication PMC5633609, “Novel Peripherally Restricted Cannabinoid 1 Receptor Selective Antagonist TXX-522 with Prominent Weight-Loss Efficacy in Diet Induced Obese Mice” (Frontiers in Pharmacology, 2017)
Where two headings read alike, the source gives them in different places.

Columns and labels:
human CB2R [1] = target: T1, human CB2R (Homo sapiens, UniProt P34972); test: Intracellular cAMP assay in CHO-hCB2 cells; format: cell-based; set-up: host or cells: CHO (CHO-hCB2R); settings: even at 10 μmol/L
T1 sequence (P34972 whole entry): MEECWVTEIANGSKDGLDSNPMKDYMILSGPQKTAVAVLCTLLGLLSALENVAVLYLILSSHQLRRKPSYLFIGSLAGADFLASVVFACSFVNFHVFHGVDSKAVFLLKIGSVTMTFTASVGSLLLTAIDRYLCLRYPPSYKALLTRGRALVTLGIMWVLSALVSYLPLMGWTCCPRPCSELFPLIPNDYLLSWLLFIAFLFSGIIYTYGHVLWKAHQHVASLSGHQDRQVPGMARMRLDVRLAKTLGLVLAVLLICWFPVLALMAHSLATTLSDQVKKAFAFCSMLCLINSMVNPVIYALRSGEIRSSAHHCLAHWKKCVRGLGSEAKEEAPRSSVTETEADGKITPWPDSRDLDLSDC
Procedure: (§1) The functional antagonism of the response to a CB1R agonist was previously detected in the CHO-hCB1R and CHO-hCB2R cell lines ([Chen et al., 2010], [2011]). Intracellular cAMP was analyzed in these cells using the LANCE cAMP 384 kit (AD0262, PerkinElmer, San Jose, CA, United States) following exposure to the vehicle or different concentrations of the test compounds (individually or combined) in the presence of a phosphodiesterase inhibitor (2.5 μmol/L 3-isobutyl-1-methylxanthine) for 30 min. The cAMP level detected in the vehicle-treated cells was set as 1, and the levels detected in the treated cells were expressed as fold changes compared to the control level.

[2] = Steady state brain to plasma distribution after intravenous administration; format: in vivo, Sprague-Dawley rats; settings: rat; for fraction of compound in the brain tissue: intravenous, steady state
Procedure: The compounds (2.5 mg/kg) were dissolved in 5% glucose solution containing polyoxyethylene castor oil (2.17%), 1,2-propanediol (0.56%), ethanol (0.75%), and medium chain triglycerides (0.48%) prior to intravenous administration to the Sprague-Dawley rats (n = 3), with an initial push of 0.3 mL at a speed of 75 mL/h, followed by 2.5 mL/h for 40 min. Retro-orbital blood samples (∼250 μL) were collected at defined time-points (0, 10, 15, 20, 25, 30, 35, and 40 min after dosing). The rats were then euthanized by decapitation, the brain and plasma samples were collected, and then stored at -80°C for subsequent assay. The plasma samples and whole rat brain, which had been homogenized with five volumes (v/w) of physiological saline on ice, were extracted by protein precipitation and analyzed using liquid chromatography-mass spectrometry/mass spectrometry, as previously reported ([Fulp et al., 2012]). The steady state Kp-value for each test compound was calculated and used as an index of brain penetration.

C57BL/6 mice [3] = test: WIN 55,212-2-induced hypothermia / body temperature; format: in vivo, C57BL/6J mice; settings: for effect on WIN 55,212-2-induced hypothermia: oral, 1 h before WIN 55,212-2 3 mg/kg i.p., SR141716A 10 mg/kg, TXX-522 20 or 60 mg/kg, 30 min after WIN; for effect of compound alone on body temperature: TXX-522 alone, data not shown, WIN 55,212-2 3 mg/kg i.p.
Procedure: After a 7-day acclimation, body weight-matched male C57BL/6J mice (8-week-old) were randomly sorted into four different groups (n = 5 mice/group). […] The rectal temperature was monitored using a rectal probe coupled to a digital thermometer before and 30 min after treatment with WIN 55,212-2.

C57BL/6 mice [4] = test: Acute food intake (appetite) in fasted mice; format: in vivo; settings: fasted C57BL/6 mice, oral; TXX-522 20 and 60 mg/kg, SR141716A 10 mg/kg; 3 h intake
Procedure: Mice (8-week-old) were maintained singly for 7 days with ad libitum access to a standard diet before testing. […] At 30 min post treatment, the mice were allowed access to rodent chow, and their food intake was measured for the subsequent 3 h.

DIO C57BL/6 mice = test: Anti-obesity study in DIO C57BL/6 mice; format: in vivo; settings: for effect on food intake of DIO mice: 1st week of administration; for effect on fasting blood glucose and insulin levels: overnight-fasted; for effect on serum triglyceride and total cholesterol: end of treatment, SR141716A 5 mg/kg, TXX-522 10 mg/kg; for onset of statistically significant body weight difference / effect on body weight of DIO mice: oral gavage daily 4 weeks; for effect on body weight of DIO mice: SR141716A 5 mg/kg/day
Procedure: Male C57BL/6J mice (6-week-old) were maintained on a 12-h light/dark cycle at a controlled temperature (22 ± 1°C) and were fed a high-fat diet (45% fat, 18% protein, and 37% carbohydrate) for 20 weeks to establish the DIO mouse model ([Chen et al., 2010], [2011]). Age-matched standard diet-fed lean mice were used as the normal control group. […] Individual body weights and cage food consumption were measured daily. Oral glucose tolerance testing was performed on treatment day 23 on overnight-fasted mice while the serum glucose and insulin levels were assayed as described previously ([Chen et al., 2013]). At the end of the treatment period, the mice were fasted overnight prior to collecting blood samples for the analysis of serum triglycerides and total cholesterol levels as described previously ([Xie et al., 2015]). Furthermore, the intra-abdominal white adipose tissues (epididymal, lumbar, and perirenal) were removed and weighed.

DIO mice and rats = system: DIO mice and rats; set-up: method as in Alonso et al., 2012; Silvestri and Di Marzo, 2012; settings: ref Alonso et al., 2012, Silvestri and Di Marzo; cited from earlier work
human CB2R [5] = target: T1, human CB2R; test: Receptor internalization (redistribution) assay in EGFP-CB2_U2OS cells; format: cell-based; settings: read-out: IC50 CB2R, antagonism of WIN 55,212-2-induced internalization
Description: (§2) Commercial enhanced green fluorescent protein (EGFP)-CB1/CB2_U2OS cells specifically designed to screen CB1R/CB2R agonists or antagonists (Thermo Fisher Bioimage ApS, Soeborg, Denmark) were used to examine the antagonist activity and selectivity of TXX-522 for these CBR subtypes. […] Based on a previously described method ([Chen et al., 2011]), the regular EGFP-CB1/CB2_U2OS cell culture medium was replaced with F12 culture medium containing 1 μmol/L Hoechst 33342 (Invitrogen, OR, United States) before each experiment, and incubated for 20 min at 37°C. […] Dimethyl sulfoxide (DMSO, 0.1%) was used as the vehicle control. After further incubation for 2 h at 37°C, images of the cells were acquired using the IN Cell Analyzer 2000 (GE Healthcare, NJ, United States; 20× objective) and analyzed using the Granularity Analysis Module of the IN Cell. The inhibition ratio of each tested compound was expressed as percentage inhibition of the internalization induced by the reference CB1R/CB2R agonist, WIN 55,212-2. […] The results were obtained from three independent experiments each performed in triplicate.

human CB1R [6] = target: T2, human CB1R (Homo sapiens, UniProt P21554); format: binding; set-up: host or cells: CHO (CHO-hCB1R)
T2 sequence (P21554 whole entry): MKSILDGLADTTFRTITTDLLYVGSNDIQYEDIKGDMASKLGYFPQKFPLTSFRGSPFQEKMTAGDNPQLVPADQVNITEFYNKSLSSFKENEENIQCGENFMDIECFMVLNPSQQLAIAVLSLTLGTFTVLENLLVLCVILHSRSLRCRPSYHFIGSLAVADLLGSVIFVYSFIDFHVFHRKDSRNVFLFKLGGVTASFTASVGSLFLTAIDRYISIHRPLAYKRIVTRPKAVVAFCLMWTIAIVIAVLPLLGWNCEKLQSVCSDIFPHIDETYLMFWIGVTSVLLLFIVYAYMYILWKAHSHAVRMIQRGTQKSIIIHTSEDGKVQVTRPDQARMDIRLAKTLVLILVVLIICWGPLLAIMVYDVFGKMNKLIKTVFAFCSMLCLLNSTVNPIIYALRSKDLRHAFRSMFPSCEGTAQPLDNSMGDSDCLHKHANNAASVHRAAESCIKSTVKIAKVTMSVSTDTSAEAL
Procedure: (§3) The affinities of TXX-522 for the human CB1R and CB2R receptor were analyzed using Cerep cooperation (Celle l’Evescault, France) using stably transfected CHO cells (CHO-hCB1R and CHO-hCB2R, respectively) and a previously reported competitive binding assay ([Munro et al., 1993]; [Chen et al., 2011]). Non-specific binding was determined in the presence of 10 μmol/L non-radioactive WIN 55,212-2. […] Each competitive binding inhibition curve was generated using data pooled from three independent experiments each conducted in duplicate.

human CB2R [7] = target: T1, human CB2R; test: Competitive radioligand binding assay, CHO-hCB2R; set-up: host or cells: CHO (CHO-hCB2R); settings: CHO-hCB2R cells; read-out: IC50, CB2 receptor competitive binding
Procedure: as §3

human CB1R [8] = target: T2, human CB1R; test: Intracellular cAMP assay in CHO-hCB1 cells; format: cell-based; set-up: host or cells: CHO (CHO-hCB1R)
Procedure: as §1

DIO Kunming mice = test: Preliminary screening test in DIO Kunming mice; format: in vivo; settings: 3-week treatment, 20 mg/kg, data not shown
Description: Finally, we further evaluated the in vivo pharmacodynamic effects of TXX-522 in a commonly used mouse model of obesity.

rat hippocampal neurons = test: Fluoro-3 AM Ca2+ imaging in hippocampal neurons; format: cell-based; settings: 10 nmol/L to 10 μmol/L; WIN 55,212-2 1 μmol/L; concentration-dependent
Procedure: Hippocampal neurons were prepared from neonatal rats as described previously and intracellular Ca^2+ levels ([Ca^2+]i) were investigated ([Chen et al., 2010]). […] WIN 55,212-2 (1 μmol/L) was added 1 min later. The fluorescence was monitored and imaged using the IN Cell Analyzer 1000 and analyzed using the Object Intensity Analysis Module of IN Cell. The [Ca^2+]i time courses were monitored by recording the relative fluorescence intensity per cell vs. time.

human CB1R [9] = target: T2, human CB1R; format: cell-based
Description: as §2

[10] = set-up: method as in earlier work; settings: ref Chorvat et al., 2012, Klumpers et al., 2013, Knani et al., 2016, Lu et al.; cited from earlier work
[11] = 2.5 mg/kg intravenous infusion, 40 min

Compound	effect on intracellular cAMP level in CHO-hCB2 cells (human CB2R [1])	fraction of compound in the brain tissue [2] [%]	effect on WIN 55,212-2-induced hypothermia (C57BL/6 mice [3])	effect on acute food intake (C57BL/6 mice [4])	effect on food intake of DIO mice (DIO C57BL/6 mice)	effect on fasting blood glucose and insulin levels (DIO C57BL/6 mice; DIO mice)	effect on serum triglyceride and total cholesterol (DIO C57BL/6 mice)	onset of statistically significant body weight difference (DIO C57BL/6 mice)	effect on body weight of DIO mice (DIO C57BL/6 mice; TXX-522 5 or 10 mg/kg/day)	anorexia in DIO mice and rats (DIO mice and rats)	effect of compound alone on body temperature (C57BL/6 mice [3])	other results
Cc1c(C(=O)NN2CCCCC2)nn(-c2ccc(Cl)cc2Cl)c1-c1ccc(Cl)cc1 [SR141716A, reference compound]	neither TXX-522 nor SR141716A affected	> 60	reversed	significantly inhibited food intake	reduced food intake	dramatically decreased	notably reduced hypertriglyceridemia	from day 4 onward	significant reduction			Kp at 40 min ([2]; Sprague-Dawley, brain and plasma, 2.5 mg/kg intravenous infusion, read-out: Kp (brain to plasma distribution ratio, steady state)): 1.67
CCCCCCc1nc(-c2ccc(Cl)cc2)n(-c2ccc(Cl)cc2Cl)n1 [LH-21]										induced anorexia		
(5-(4-chlorophenyl)-1-(2, 4-dichlorophenyl)-4-methyl-1H-pyrazol-3-yl) (piperidin-1-yl) methanone [TXX-522]	neither TXX-522 nor SR141716A affected	2	did not block	did not affect acute food consumption	no anorexia	dramatically decreased	lowered both serum triglyceride and total cholesterol levels	from 2 weeks	dose-dependently decreased		did not affect the body temperature	Kp (brain to plasma distribution ratio, steady state) ([2]; 2.5 mg/kg intravenous infusion): 0.02; steady state concentration in brain [2, 11]: 528.9 ± 1.6 ng/mL; steady state concentration in plasma [2, 11]: 23323.0 ± 267.8 ng/mL; IC50 (human CB2R [5]): > 10000 nM; IC50 (human CB1R [6]; CHO-hCB1R cells, radioligand [3H]-CP 55,940 or [3H]-SR141716A, read-out: IC50, CB1R competitive binding): 170 nM; Ki (human CB1R [6]; CHO-hCB1R cells, radioligand [3H]-CP 55,940 or [3H]-SR141716A, read-out: Ki, CB1R competitive binding): 150 nM; selectivity ratio (CB1R over CB2R, binding) (human CB1R [6]; from radioligand binding values): 176; IC50 (human CB2R [7]): > 30000 nM; reversal of WIN 55,212-2-induced inhibition of forskolin-stimulated cAMP accumulation (human CB1R [8]; WIN 1 μmol/L, forskolin 0.1 μmol/L): dose-dependently reversed; maximum effect on cAMP (human CB1R [8]; at 10 μmol/L with forskolin plus WIN): equivalent to that induced by forskolin alone; effect of compound alone on forskolin-induced cAMP level (inverse agonism) (human CB1R [8]; up to 10 μmol/L, data not shown): no further increase; effect on body weight and fat mass (DIO Kunming mice): significantly reduced body weight and fat mass; effect on insulin resistance and hyperinsulinemia (DIO C57BL/6 mice; 5 mg/kg): ameliorated the insulin resistance and hyperinsulinemia more than the same dose of SR141716A did; adverse effects / apparent signs of toxicity (DIO C57BL/6 mice; DIO mice, 4 weeks, TXX-522 5 or 10 mg/kg/day): no adverse effects; weight loss and abdominal fat decrease by the end of the study (DIO C57BL/6 mice; chronic treatment, 5 and 10 mg/kg, compared with SR141716A): comparable efficacy to that of SR141716A; oral glucose tolerance testing (DIO C57BL/6 mice; treatment day 23, 5 mg/kg): ameliorated glucose intolerance more than the same dose of SR141716A did; effect on elevation and oscillation of [Ca2+]i elicited by WIN 55,212-2 (rat hippocampal neurons): blocked; IC50 (human CB1R [9]; EGFP-CB1_U2OS cells, WIN 55,212-2 1 μmol/L, read-out: IC50 CB1R, antagonism of WIN 55,212-2-induced internalization): 10.3 ± 6.08 nM; CB2R/CB1R selectivity (internalization IC50 ratio) (human CB1R [9]; EGFP-CB1_U2OS vs EGFP-CB2_U2OS cells): >968
CC(C)[C@H](N=C(NS(=O)(=O)c1ccc(Cl)cc1)N1C[C@H](c2ccccc2)C(c2ccc(Cl)cc2)=N1)C(N)=O [JD-5037]										induced anorexia		brain to plasma distribution ratio (Kp) [10]: < 1
Cc1c(C(=O)c2cccc3ccccc23)c2cccc3c2n1[C@H](CN1CCOCC1)CO3 [WIN 55,212-2, reference compound]											notably decreased the body temperature	
